From paper PMC9463526 (Journal of Pharmaceutical Analysis, 2022)
Like-named read-outs stand apart in the source and are kept apart here.

What was measured:
[1] = Tumor-to-plasma partition coefficients (Kp, Kp,uu) in GBM patients; type: in vivo, human; conditions: for Unbound tumor-to-plasma partition coefficient (Kp,uu), fold lower than abemaciclib: both GBM regions, five patients
Method: Blank brain and clinical brain tumor tissue homogenates were prepared at 1:9 (m/V) ratio with PBS. The samples were homogenized at a speed of 6.00 m/s for 40 s for three cycles using a Bead Ruptor Elite homogenizer (Omni International, Kennesaw, GA, USA). Plasma was used as a surrogate matrix when preparing calibration curves for brain and brain tumor homogenates and CSF as well as for the PBS fraction after sample dialysis. To minimize matrix differences, all plasma samples were spiked with PBS, while all non-plasma samples were spiked with plasma. Extraction of the analyte and IS was facilitated by protein precipitation using methanol-containing IS precipitation solution. Samples (70 μL) spiked with PBS or plasma were precipitated using 400 μL of IS precipitation solution. After centrifugation at 12,000 r/min for 10 min at 4 °C, the supernatant was transferred for LC-MS/MS analysis.
(§1) Unbound drug levels in the actual plasma and brain tumor tissue were measured using dialysis for 16 h to reach equilibrium. The mean of fraction unbound values determined in five patient samples was calculated.
The validated bioanalytical method was employed to investigate analytes pharmacokinetics in the plasma, brain tumor, and CSF in GBM patients (ClinicalTrials.gov identifier: NCT04391595). The protocol was reviewed and approved by the Institutional Review Board of the Barrow Neurological Institute, St. Joseph's Hospital and Medical Center (Phoenix, AZ, USA). All patients enrolled in the trial provided written informed consent. […] Blood, CSF, and GBM tissue (including gadolinium-contrast enhancing and non-enhancing regions) samples were obtained intra-operatively from each patient on the […] on the planned operation day. Blood was centrifuged at 4 °C and 3,000 r/min for 10 min; plasma was subsequently collected. Brain tumors were resected 7–9 h after the last dose was administered. Once resected, the tissue samples were rinsed with PBS, paper dried, and freshly frozen in liquid nitrogen. […]

[2] = Equilibrium dialysis, fraction unbound in patient brain tumor tissue; type: in vitro ADME; conditions: human, five patients, 16 h equilibrium dialysis
Method: Equilibrium dialysis was employed to measure the fraction unbound of analytes in plasma, brain, and brain tumor tissue homogenates using 96-well DispoEquilibrium Dialyzer plates with a 10 kDa cut-off regenerated cellulose membrane. Dialysis was performed using 180 μL of human plasma or tissue homogenate against an equal volume of PBS (pH 7.4) in a dual-plate rotator (Harvard Apparatus, Holliston, MA, USA). Equilibrium time was initially optimized by analyzing samples after 2, 4, 6, 8, 16, and 24 h of dialysis at concentrations of 20 and 200 nM in human plasma and brain homogenate. The dialysates were collected and processed as described in Sections 2.3.2 and 2.3.3. The recovery of analytes was calculated as the ratio of analyte concentration after dialysis (sum of concentrations found in PBS and matrix fractions) to the total concentration to ensure the reliability and reproducibility of the assay. The experiments were repeated at least three times, and each sample in triplicate and average fraction unbound values were determined.
The fraction unbound in plasma (fu, plasma) and tissue homogenate (fu, hom) was evaluated as the analyte concentration ratio of post-dialysis PBS (cu) to post-dialysis plasma (cp, Eq. (1)) or homogenate (chom, Eq. (2)).(1) fu,plasma =cu/cp (2) fu,hom =cu/chom
The fraction unbound in the actual tissue (fu, tissue) was obtained by incorporating the unbound fraction in the tissue homogenate (fu, hom) and the dilution factor (Df) into Eq. (3).(3) fu,tissue = fu,hom/[Df - (Df - 1)fu,hom]
as §1
The validated bioanalytical method was employed to investigate analytes pharmacokinetics in the plasma, brain tumor, and CSF in GBM patients (ClinicalTrials.gov identifier: NCT04391595). The protocol was reviewed and approved by the Institutional Review Board of the Barrow Neurological Institute, St. Joseph's Hospital and Medical Center (Phoenix, AZ, USA). All patients enrolled in the trial provided written informed consent. […] Blood, CSF, and GBM tissue (including gadolinium-contrast enhancing and non-enhancing regions) samples were obtained intra-operatively from each patient on the […] on the planned operation day. Blood was centrifuged at 4 °C and 3,000 r/min for 10 min; plasma was subsequently collected. Brain tumors were resected 7–9 h after the last dose was administered. Once resected, the tissue samples were rinsed with PBS, paper dried, and freshly frozen in liquid nitrogen. The samples were then stored at −80 °C in a freezer for later analysis.

[3] = Pilot pharmacokinetic studies in mice (blood-brain barrier); type: in vivo
[4] = parameters: method as in investigational brochures; conditions: ref investigational brochures; cited from earlier work
[5] = pH 7.4, gadolinium contrast enhancing GBM region, read-out: Fraction unbound (fu), GBM (E)
[6] = pH 7.4, gadolinium contrast non-enhancing GBM region, read-out: Fraction unbound (fu), GBM (NE)

| Compound | Unbound tumor-to-plasma partition coefficient (Kp,uu), fold lower than abemaciclib [1] | Total tumor-to-plasma partition coefficient (Kp), fold higher than M20 ([1]; gadolinium-contrast enhancing and non-enhancing GBM regions) [fold] | fraction unbound at 16 h [2, 5] | fraction unbound at 16 h [2, 6] | Crossing of the blood-brain barrier [3] | pKa (strongest basic) [4] |
| --- | --- | --- | --- | --- | --- | --- |
| Cc1nc2c(F)cc(-c3nc(Nc4ccc(CN5CCNCC5)cn4)ncc3F)cc2n1C(C)C [M2] | at least 3 fold | > 2 | 0.009 | 0.006 | – | – |
| CCN1CCN(Cc2ccc(Nc3ncc(F)c(-c4cc(F)c5nc(CO)n(C(C)C)c5c4)n3)nc2)CC1 [M20] | at least 3 fold | – | 0.022 | 0.017 | – | – |
| Cn1nccc1Nc1nccc(-c2cc3c(s2)C(C)(C)N(CCN2CCOCC2)C3=O)n1 [LY3214996] | – | – | 0.109 | 0.06 | may cross the blood-brain barrier | 6.21 |
